According to patent US9994848B2, “Pharmaceutical composition for preventing and teating endocrine disrupting chemicals-induced diseases and treating method using the same” (priority 2016, dated 2018):

What was measured:
3T3-L1 adipocytes [1] = test: Oil Red O staining of 3T3-L1 adipocytes (adipocyte differentiation, total lipid content); format: cell-based, mouse; conditions: for oil red O staining (adipocyte differentiation): PCBs 20 μM during DMI treatment, 3T3-L1 adipocytes
Procedure: (§1) 3T3-L1 mouse embryo fibroblasts, purchased from American Type Culture Collection (Manassas, Va., USA), were maintained in standard Dulbecco's modified Eagle's medium (DMEM; Gibco-BRL, Gaithersburg, Md., USA) supplemented with 10% fetal calf serum (FCS; Gibco-BRL, Gaithersburg, Md., USA) and 1% penicillin/streptomycin at 37° C. in a humidified 5% CO2 atmosphere. After confluence, 3T3-L1 cells were induced to differentiate using DMI induction medium (DMEM containing 10% FBS, 0.5 mM 3-isobutyl-1-methylxanthine, 0.5 μM dexamethasone, and 1 μg/ml insulin) for 2 days, followed by DMII (DMEM containing 10% FBS and 1 μg/ml insulin) for 2 days. The medium was subsequently replaced with fresh culture medium (DMEM with 10% FBS) every 2 days for 4 days. To define the effects of PCBs on adipocyte differentiation, we incubated preadipocytes with PCBs (PCB-77, PCB-118, PCB-138 or PCB-153) at equivalent concentrations (20 μM) during DMI treatment.
(§2) For the siRNA-mediated down-regulation of Fsp27, Fsp27-specific siRNA and negative control siRNA were purchased from Bioneer (Daejeon, Korea) and used at a concentration of 20 nM. 3T3-L1 mouse embryo fibroblasts were transfected with either the siRNA molecule specific for Fsp27 or a negative control siRNA using Lipofectamine® RNAiMAX per the manufacturer's instructions.
As previously described (Kim et al. 2015), cells were washed twice in phosphate buffered saline (PBS) and fixed for 1 h with 10% (w/v) formaldehyde in PBS. After two washes in 60% isopropyl alcohol, the cells were stained for 30 min in freshly diluted Oil Red O solution. Then, the stain was removed, and the cells were washed 4 times in water. After adding 100% 2-propanol at 500 nm, the absorbance of the eluted Oil Red O was measured in a spectrophotometer.

[2] = test system: p-Akt (Ser473) and p-PI3K p85 (Tyr458); test: Western blot of insulin-induced p-Akt and p-PI3K p85 in 3T3-L1 adipocytes; format: cell-based, mouse; conditions: for insulin-induced upregulation of p-Akt (Ser473) and p-PI3K p85 (Tyr458): 3T3-L1 adipocytes
Procedure: as §1
(§3) Cells and tissues were washed with ice-cold PBS, resuspended in 100 μL ice-cold RIPA buffer and incubated at 4° C. for 30 min. Lysates were centrifuged at 13,000 rpm for 30 min at 4° C. Equal amounts of proteins were subjected to 7.5-15% sodium dodecyl sulfate polyacrylamide gel electrophoresis. The proteins were transferred to a nitrocellulose membrane and reacted with each antibody. Immunostaining with antibodies was performed using the Super Signal West Pico (Thermo Scientific, Hudson, N.H., USA) enhanced chemiluminescence substrate and detected with LAS-3000 Plus (Fuji Photo Film, Tokyo, Japan). Quantification and normalization to actin or GAPDH control bands were performed using ImageJ 1.48q (NIH imaging software, Bethesda, Md., USA).

C57BL/6 mice [3] = test: PCB exposure of C57BL/6 mice: adipose mass, adipocyte size, body and liver weight; format: in vivo, mouse; conditions: 37.5 mg/kg ip, three injections, 6-week study
Procedure: (§4) Adult male C57BL/6 mice (8-week-old, 22-25 g) were purchased from SamTako Bio-Korea (Osan, Korea). The animals were maintained in a temperature-controlled room (22° C.) on a 12:12-h light-dark cycle. All procedures were approved by the Committee on Animal Investigations at Dong-A University. 12-week-old mice were administered vehicle (corn oil), PCB-118 or PCB-138 (37.5 mg/kg) by intraperitoneal (ip) injection for a total of three injections (2, 3 and 5 weeks) during the 6-week study duration. Mice were randomly divided into 3 groups of 10 animals each.
Epididymal white adipose tissues (eWAT) were fixed in 10% neutral buffered formalin and embedded in paraffin. Four-micrometer sections were prepared and stained with hematoxylin and eosin. The morphology of the […] was photographed using an Aperio ScanScope (Aperio Technologies, Vista, Calif., USA).

Fsp27 and perilipin [4] = test: Western blot of LD-associated proteins in PCB-administered mice; design: species or system mouse; conditions: in vivo
Procedure: as §4, §3

C57BL/6 mice [5] = test: Blood glucose, plasma insulin, GTT and ITT in PCB-administered mice; format: in vivo, mouse; conditions: for blood glucose level / plasma insulin level: 37.5 mg/kg ip; for amount of hyperglycemia in GTT: glucose 1 mg/g ip after 16 h fast; for efficiency of insulin in ITT: insulin 0.75 U/kg ip after 16 h fast
Procedure: as §4
As previously described, intraperitoneal glucose tolerance tests (GTT) and insulin tolerance tests (ITT) were performed after the mice were fasted for 16 h. Plasma glucose concentrations were measured in tail blood using a GlucoDr Blood Glucose Test Strip (Hasuco, Seoul, South Korea) prior to and 30, 60, 90 and 120 minutes after intraperitoneally injecting a bolus of glucose (1 mg/g) for the GTT, and at the same time-points after intraperitoneally injecting 0.75 U/kg body weight insulin for the ITT.

3T3-L1 adipocytes [6] = test: Lipid droplet (LD) morphology and size in 3T3-L1 adipocytes (phase contrast, confocal microscopy); format: cell-based, mouse; conditions: for large LD formation: 3T3-L1 adipocytes treated with PCBs
Procedure: as §1, §2

Fsp27 and perilipin [7] = test: Western blot of LD-associated proteins in 3T3-L1 adipocytes; format: cell-based, mouse; conditions: for protein expression levels of Fsp27 and perilipin: in vitro
Procedure: as §1, §3

aP2, PPAR and C/EBP = test: mRNA and protein levels of adipocyte differentiation markers in vitro; format: cell-based, mouse
Procedure: as §1, with “To define the effects of PCBs on adipocyte differentiation, we incubated preadipocytes with PCBs (PCB-77, PCB-118, PCB-138 or PCB-153) at equivalent concentrations (20 μM) during DMI treatment.” left out
as §3, with “Lysates were centrifuged at 13,000 rpm for 30 min at 4° C. Equal amounts of proteins were subjected to 7.5-15% sodium dodecyl sulfate polyacrylamide gel electrophoresis. The proteins were transferred to a nitrocellulose membrane and reacted with each antibody.” left out

IRS1 = IRS1 protein and mRNA level in 3T3-L1 adipocytes; format: cell-based, mouse; conditions: correlated with reversal of Fsp27 upregulation, Western blot
Procedure: as §1, with “To define the effects of PCBs on adipocyte differentiation, we incubated preadipocytes with PCBs (PCB-77, PCB-118, PCB-138 or PCB-153) at equivalent concentrations (20 μM) during DMI treatment.” left out
as §3, with “Lysates were centrifuged at 13,000 rpm for 30 min at 4° C. Equal amounts of proteins were subjected to 7.5-15% sodium dodecyl sulfate polyacrylamide gel electrophoresis. The proteins were transferred to a nitrocellulose membrane and reacted with each antibody.” left out

adipocytes = test: Accumulation of PCBs in adipocytes; format: cell-based

| SMILES | insulin-induced upregulation of p-Akt (Ser473) and p-PI3K p85 (Tyr458) [2] | adipocyte size (eWAT) (C57BL/6 mice [3]) | adipose mass (C57BL/6 mice [3]) | body weight (C57BL/6 mice [3]) | liver weight (C57BL/6 mice [3]) | protein expression levels of Fsp27 and perilipin (Fsp27 and perilipin [4]) | oil red O staining (adipocyte differentiation) (3T3-L1 adipocytes [1]) | blood glucose level (C57BL/6 mice [5]) | plasma insulin level (C57BL/6 mice [5]) | amount of hyperglycemia in GTT (C57BL/6 mice [5]) | efficiency of insulin in ITT (C57BL/6 mice [5]) | large LD formation (3T3-L1 adipocytes [6]) | protein expression levels of Fsp27 and perilipin (Fsp27 and perilipin [7]; 3T3-L1 adipocytes) | mRNA and protein levels of aP2, PPAR and C/EBP (markers of adipocyte differentiation) (aP2, PPAR and C/EBP) | also measured |
| --- | --- | --- | --- | --- | --- | --- | --- | --- | --- | --- | --- | --- | --- | --- | --- |
| Clc1ccc(-c2ccc(Cl)c(Cl)c2)cc1Cl [PCB-77, 3,3′,4,4′-tetrachlorobiphenyl] | – | – | – | – | – | – | – | – | – | – | – | – | – | – | effect on the adipocyte differentiation (3T3-L1 adipocytes [1]; compared to PCB-118 and PCB-138, 20 μM): meager effect |
| Clc1ccc(-c2cc(Cl)c(Cl)cc2Cl)cc1Cl [PCB-118, 2,3′,4,4′,5-pentachlorobiphenyl] | impaired | increased | increased | without affecting | without affecting | increased | significantly increased | increased | increased | increased | reduced | promote large LD formation | increased | increased | – |
| Clc1cc(Cl)c(-c2ccc(Cl)c(Cl)c2Cl)cc1Cl [PCB-138, 2,2′,3,4,4′,5′-Hexachlorobiphenyl] | impaired | increased | increased | without affecting | without affecting | increased | significantly increased | increased | increased | increased | reduced | promote large LD formation | increased | increased | – |
| CN(C)C(=N)N=C(N)N [metformin, reference compound] | – | – | – | – | – | – | – | – | – | – | – | – | – | – | impairment by PCBs of the insulin-induced upregulation of p-Akt (Ser473) and p-PI3K p85 (Tyr458) ([2]; PCB-treated 3T3-L1 adipocytes): reversed; IRS1 downregulation in adipocytes exposed to PCBs (IRS1): reversal; accumulation of PCB-118 and PCB-138 in adipocytes (adipocytes): reverted; PCB-induced LD enlargement (3T3-L1 adipocytes [6]; PCB-treated 3T3-L1 adipocytes, phase contrast microscopy): reversed; expression level of Fsp27 (Fsp27 and perilipin [7]; 3T3-L1 adipocytes, Western blot): reduced; PCB-induced upregulation of Fsp27 expression (Fsp27 and perilipin [7]; PCB-treated 3T3-L1 adipocytes, Western blot): reversed |
